Test results as given in ChEMBL document CHEMBL4842368, “Berotralstat (BCX7353): Structure-Guided Design of a Potent, Selective, and Oral Plasma Kallikrein Inhibitor to Prevent Attacks of Hereditary Angioedema (HAE)” (J Med Chem, 2021).

Experiments:
Plasma kallikrein [1] = target: T1, Plasma kallikrein (Homo sapiens, UniProt P03952); test: Inhibition of purified human plasma kallikrein using H-D-Pro-Phe-Arg-pNA.2HCl as substrate measured after 3 mins by microplate reader analysis
Plasma kallikrein [2] = target: T1, Plasma kallikrein; test: Inhibition of endogenous human plasma kallikrein using Z-Phe-Arg-AMC.HCl as substrate measured after 5 mins by microplate reader analysis
[3] = Cmax in rat at 5 mg/kg, po; format: ADME, organism-based; design: route oral, dose 5 mg/kg; settings: in vivo
[4] = AUC in rat at 5 mg/kg, po after 12 hrs; format: ADME, organism-based; design: route oral, time 12 hrs, dose 5 mg/kg; settings: in vivo

T1 sequence (P03952 20-390 limits assumed): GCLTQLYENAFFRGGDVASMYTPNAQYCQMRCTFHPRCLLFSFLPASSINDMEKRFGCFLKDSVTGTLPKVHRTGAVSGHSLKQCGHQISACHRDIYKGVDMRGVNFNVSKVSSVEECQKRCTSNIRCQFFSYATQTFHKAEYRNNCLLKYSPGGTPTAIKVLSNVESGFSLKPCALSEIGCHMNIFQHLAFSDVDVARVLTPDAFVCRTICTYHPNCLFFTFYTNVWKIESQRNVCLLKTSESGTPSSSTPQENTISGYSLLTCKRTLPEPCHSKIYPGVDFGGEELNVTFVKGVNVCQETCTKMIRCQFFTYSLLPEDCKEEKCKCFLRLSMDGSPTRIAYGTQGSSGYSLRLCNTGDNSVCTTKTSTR
T1 sequence (P03952 391-638 limits assumed): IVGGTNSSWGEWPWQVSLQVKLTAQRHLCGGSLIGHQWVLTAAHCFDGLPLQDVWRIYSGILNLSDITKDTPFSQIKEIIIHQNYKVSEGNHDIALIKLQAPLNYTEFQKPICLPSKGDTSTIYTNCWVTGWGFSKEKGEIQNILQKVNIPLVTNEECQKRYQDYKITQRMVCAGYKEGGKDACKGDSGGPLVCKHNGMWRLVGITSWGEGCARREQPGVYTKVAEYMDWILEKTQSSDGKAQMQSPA

IC50 (Plasma kallikrein [1]) [µM]	IC50 (Plasma kallikrein [2]) [µM]	Cmax [3] [ng/mL]	AUC at 12 h [4] [ng·h/mL]	Compound
3400				NCc1cccc(-n2cccn2)c1
0.0104	0.0267	45	131	NCc1cccc(-n2nc(C(F)(F)F)cc2C(=O)Nc2cc(C(NCC3CC3)c3ccccn3)ccc2F)c1 (centres undefined)
0.0052	0.0167	22	73	NCc1cccc(-n2nc(C(F)(F)F)cc2C(=O)Nc2cc(C(NCC3CC3)c3ccncc3)ccc2F)c1 (centres undefined)
0.71				NCc1cccc(-n2nc(C(F)(F)F)cc2C(=O)Nc2cc(C(O)c3ccccc3)ccc2F)c1 (centres undefined)
0.231				COC(c1ccccc1)c1ccc(F)c(NC(=O)c2cc(C(F)(F)F)nn2-c2cccc(CN)c2)c1 (centres undefined)
0.0376	0.3			NCc1cccc(-n2nc(C(F)(F)F)cc2C(=O)Nc2cccc(C(OCC3CC3)c3ccccc3)c2)c1 (centres undefined)
1				NCc1cccc(-n2nc(C(F)(F)F)cc2C(=O)Nc2ccc(C(O)c3ccccc3)cc2F)c1 (centres undefined)
0.708	> 1			NCc1cccc(-n2nc(C(F)(F)F)cc2C(=O)Nc2ccc(F)c(C(OCC3CC3)c3ccccc3)c2)c1 (centres undefined)
0.037	> 1			NCc1cccc(-n2nc(C(F)(F)F)cc2C(=O)Nc2cccc(C(OCC3CC3)c3ccccc3)c2F)c1 (centres undefined)
0.149				NCc1cccc(-n2nc(C(F)(F)F)cc2C(=O)Nc2cccc(C(O)c3ccccc3)c2F)c1 (centres undefined)

Compound	IC50 (Plasma kallikrein [1]) [µM]	IC50 (Plasma kallikrein [2]) [µM]	Cmax [3] [ng/mL]	AUC at 12 h [4] [ng·h/mL]
NCc1cccc(-n2nc(C(F)(F)F)cc2C(=O)Nc2ccc(-c3ccccc3)cc2F)c1	1.02			
NCc1cccc(-n2nc(C(F)(F)F)cc2C(=O)Nc2ccc(-c3ccccc3)cc2)c1	2.9			
NCc1cccc(-n2nc(C(F)(F)F)cc2C(=O)Nc2ccc(-c3ccc(S(N)(=O)=O)cc3)cc2F)c1	0.395			
NCc1cccc(-n2nc(C(F)(F)F)cc2C(=O)Nc2ccccc2)c1	22.6			
NCc1cccc(-n2nc(C(F)(F)F)cc2C(=O)Nc2ccccc2F)c1	27.3			
